Legend:
[1] = DRUGMATRIX: Calcium Channel Type L, Phenylalkylamine radioligand binding (ligand: [3H] (-)-Desmethoxyverapamil (D-888)); assay type: cell membranes, Rattus norvegicus, Wistar, Brain, Membrane; settings: Not Active = under 50% inhibition at 10 µM
Cytochrome P450 1A2 = biological target: T1, Cytochrome P450 1A2 (Homo sapiens, UniProt P05177); settings: bti-tn-5b1-4; also: in other assays of this panel Not Active means under 50% inhibition at 10 µM
T1 sequence (P05177 whole entry): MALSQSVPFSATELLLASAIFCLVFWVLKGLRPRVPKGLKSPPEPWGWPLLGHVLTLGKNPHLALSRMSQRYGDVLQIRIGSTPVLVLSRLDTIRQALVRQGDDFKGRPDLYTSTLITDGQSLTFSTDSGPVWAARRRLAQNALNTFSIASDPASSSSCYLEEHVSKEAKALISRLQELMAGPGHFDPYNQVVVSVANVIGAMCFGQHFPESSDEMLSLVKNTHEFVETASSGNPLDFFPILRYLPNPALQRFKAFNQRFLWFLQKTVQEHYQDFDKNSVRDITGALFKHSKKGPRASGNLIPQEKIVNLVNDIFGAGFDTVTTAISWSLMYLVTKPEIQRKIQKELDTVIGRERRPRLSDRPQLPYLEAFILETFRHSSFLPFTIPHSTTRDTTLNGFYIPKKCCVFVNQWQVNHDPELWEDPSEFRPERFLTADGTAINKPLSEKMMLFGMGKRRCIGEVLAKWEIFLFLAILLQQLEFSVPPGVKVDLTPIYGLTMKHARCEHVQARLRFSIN

Calcitonin receptor = biological target: T2, Calcitonin receptor (Homo sapiens, UniProt P30988); assay type: cell membranes, Membrane; settings: t47d; also: in other assays of this panel Not Active means under 50% inhibition at 10 µM
T2 sequence (P30988 whole entry): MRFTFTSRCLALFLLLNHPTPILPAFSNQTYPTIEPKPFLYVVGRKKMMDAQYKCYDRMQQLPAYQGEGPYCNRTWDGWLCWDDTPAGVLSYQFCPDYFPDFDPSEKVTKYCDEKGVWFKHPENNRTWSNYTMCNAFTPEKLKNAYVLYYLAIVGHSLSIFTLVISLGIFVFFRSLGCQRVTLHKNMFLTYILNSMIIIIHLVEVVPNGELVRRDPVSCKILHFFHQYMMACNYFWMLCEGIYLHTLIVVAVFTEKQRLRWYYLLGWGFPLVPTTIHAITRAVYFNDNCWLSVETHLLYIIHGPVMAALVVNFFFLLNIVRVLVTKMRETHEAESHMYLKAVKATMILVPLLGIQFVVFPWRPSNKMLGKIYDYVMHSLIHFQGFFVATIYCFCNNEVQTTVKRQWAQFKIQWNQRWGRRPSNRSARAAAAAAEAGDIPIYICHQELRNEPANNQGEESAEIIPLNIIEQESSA

B2 bradykinin receptor = biological target: T3, B2 bradykinin receptor (Homo sapiens, UniProt P30411); assay type: cell membranes, Membrane; settings: chem-1; also: in other assays of this panel Not Active means under 50% inhibition at 10 µM
T3 sequence (P30411 whole entry): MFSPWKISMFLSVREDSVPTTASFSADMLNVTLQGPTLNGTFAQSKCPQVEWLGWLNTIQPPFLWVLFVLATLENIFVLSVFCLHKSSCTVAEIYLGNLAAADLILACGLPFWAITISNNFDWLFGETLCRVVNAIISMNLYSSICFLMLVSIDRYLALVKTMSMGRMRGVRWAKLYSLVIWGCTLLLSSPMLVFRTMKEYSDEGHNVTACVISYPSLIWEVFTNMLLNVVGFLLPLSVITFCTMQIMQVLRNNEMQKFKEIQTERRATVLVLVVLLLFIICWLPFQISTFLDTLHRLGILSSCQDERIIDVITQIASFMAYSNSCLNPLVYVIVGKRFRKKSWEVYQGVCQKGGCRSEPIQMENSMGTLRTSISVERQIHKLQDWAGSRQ

[2] = biological target: Kappa-type opioid receptor (Homo sapiens, UniProt P41145); assay: DRUGMATRIX: Opiate kappa (OP2, KOP) radioligand binding (ligand: [3H] Diprenorphine); assay type: cell membranes, HEK293, Membrane; settings: hek293; Not Active = under 50% inhibition at 10 µM
[3] = DRUGMATRIX: GABAA, Muscimol, Central radioligand binding (ligand: [3H] Muscimol); assay type: cell membranes, Rattus norvegicus, Wistar, Brain, Membrane; settings: Not Active = under 50% inhibition at 10 µM
[4] = biological target: T4, C-X-C chemokine receptor type 1 (Homo sapiens, UniProt P25024); also: in other assays of this panel Not Active means under 50% inhibition at 10 µM
T4 sequence (P25024 whole entry): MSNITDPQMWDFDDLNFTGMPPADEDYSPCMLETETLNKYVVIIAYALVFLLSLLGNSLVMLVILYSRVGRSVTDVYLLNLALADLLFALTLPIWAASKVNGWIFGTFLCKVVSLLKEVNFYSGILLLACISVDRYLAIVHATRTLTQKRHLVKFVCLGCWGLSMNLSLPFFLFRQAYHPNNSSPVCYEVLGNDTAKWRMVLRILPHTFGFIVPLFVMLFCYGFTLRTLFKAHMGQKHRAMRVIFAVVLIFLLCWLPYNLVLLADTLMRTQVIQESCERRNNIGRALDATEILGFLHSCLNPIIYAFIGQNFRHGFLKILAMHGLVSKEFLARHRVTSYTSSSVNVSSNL

Nitric oxide synthase 1 = Nitric oxide synthase 1 (Rattus norvegicus, UniProt P29476); assay type: tissue-based, Cerebellum; also: in other assays of this panel Not Active means under 50% inhibition at 10 µM
Nitric oxide synthase 1, sequence (P29476 whole entry): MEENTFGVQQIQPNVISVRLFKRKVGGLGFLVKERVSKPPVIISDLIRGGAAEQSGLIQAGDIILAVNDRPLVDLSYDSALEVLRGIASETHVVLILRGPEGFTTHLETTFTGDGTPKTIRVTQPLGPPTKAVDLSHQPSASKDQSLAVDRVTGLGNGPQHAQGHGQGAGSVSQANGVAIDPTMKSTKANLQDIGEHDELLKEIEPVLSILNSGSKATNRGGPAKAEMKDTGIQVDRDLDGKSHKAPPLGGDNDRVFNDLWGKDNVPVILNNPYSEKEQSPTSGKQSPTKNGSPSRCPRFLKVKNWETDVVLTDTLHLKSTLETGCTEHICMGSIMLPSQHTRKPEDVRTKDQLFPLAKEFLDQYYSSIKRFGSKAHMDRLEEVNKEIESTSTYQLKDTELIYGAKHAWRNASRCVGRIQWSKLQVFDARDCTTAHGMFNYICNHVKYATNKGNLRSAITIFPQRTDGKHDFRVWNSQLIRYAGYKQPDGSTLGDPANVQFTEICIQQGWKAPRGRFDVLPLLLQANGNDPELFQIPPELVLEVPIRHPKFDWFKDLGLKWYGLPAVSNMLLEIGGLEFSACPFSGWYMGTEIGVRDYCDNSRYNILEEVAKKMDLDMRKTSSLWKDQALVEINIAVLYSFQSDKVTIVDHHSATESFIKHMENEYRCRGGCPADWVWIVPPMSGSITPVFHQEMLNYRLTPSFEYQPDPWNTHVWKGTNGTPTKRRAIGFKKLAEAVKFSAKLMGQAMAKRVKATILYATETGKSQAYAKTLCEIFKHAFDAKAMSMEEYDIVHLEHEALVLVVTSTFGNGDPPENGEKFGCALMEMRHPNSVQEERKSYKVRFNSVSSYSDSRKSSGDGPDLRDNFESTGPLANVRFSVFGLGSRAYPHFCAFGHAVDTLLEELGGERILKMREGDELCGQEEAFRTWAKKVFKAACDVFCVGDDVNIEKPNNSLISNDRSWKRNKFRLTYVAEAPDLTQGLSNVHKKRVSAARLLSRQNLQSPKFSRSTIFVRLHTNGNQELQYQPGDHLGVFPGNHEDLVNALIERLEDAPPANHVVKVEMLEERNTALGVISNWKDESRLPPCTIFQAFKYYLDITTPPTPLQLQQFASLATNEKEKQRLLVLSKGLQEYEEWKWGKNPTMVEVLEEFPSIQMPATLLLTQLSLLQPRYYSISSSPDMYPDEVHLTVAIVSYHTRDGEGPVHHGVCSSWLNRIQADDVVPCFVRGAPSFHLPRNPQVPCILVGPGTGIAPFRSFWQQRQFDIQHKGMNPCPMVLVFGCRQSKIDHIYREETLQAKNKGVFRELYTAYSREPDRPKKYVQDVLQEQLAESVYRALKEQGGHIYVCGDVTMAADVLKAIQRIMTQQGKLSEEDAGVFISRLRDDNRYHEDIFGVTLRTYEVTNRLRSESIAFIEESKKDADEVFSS

Kappa-type opioid receptor, sequence (P41145 whole entry): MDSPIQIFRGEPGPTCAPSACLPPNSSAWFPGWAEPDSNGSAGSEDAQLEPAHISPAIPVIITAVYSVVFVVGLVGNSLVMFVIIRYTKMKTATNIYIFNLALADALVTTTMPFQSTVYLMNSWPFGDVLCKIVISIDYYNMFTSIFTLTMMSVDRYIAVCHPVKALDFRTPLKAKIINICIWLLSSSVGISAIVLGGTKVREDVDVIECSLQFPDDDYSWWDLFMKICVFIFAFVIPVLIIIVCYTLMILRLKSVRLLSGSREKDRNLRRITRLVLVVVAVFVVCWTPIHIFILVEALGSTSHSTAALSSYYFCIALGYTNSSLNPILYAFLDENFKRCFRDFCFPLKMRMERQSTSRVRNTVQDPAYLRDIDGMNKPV

Structure (SMILES)	IC50 [1]	Ki [1]	IC50 (Cytochrome P450 1A2)	Ki (Cytochrome P450 1A2)	IC50 (Calcitonin receptor)	IC50 (B2 bradykinin receptor)	IC50 [2]	IC50 [3]	Ki [3]	IC50 [4]	IC50 (Nitric oxide synthase 1)	IC50 ([1]; read-out: IC50)	Ki ([1]; read-out: Ki)
CC(=O)OCC(CCn1cnc2cnc(N)nc21)COC(C)=O [FAMCICLOVIR]	Not Active	Not Active	Not Active	Not Active	Not Active	Not Active	Not Active	Not Active	Not Active	Not Active	Not Active	–	–
O=C(O)Cc1ccc(-c2ccccc2)cc1 [FELBINAC]	Not Active	Not Active	Not Active	Not Active	Not Active	Not Active	Not Active	Not Active	Not Active	Not Active	Not Active	–	–
CC(C(=O)O)c1ccc(-c2ccccc2)c(F)c1 (stereo not drawn) [FLURBIPROFEN]	Not Active	Not Active	Not Active	Not Active	Not Active	Not Active	Not Active	Not Active	Not Active	Not Active	Not Active	–	–
NC[C@@H]1O[C@H](O[C@H]2[C@@H](O)[C@H](O[C@@H]3[C@@H](O)[C@H](N)C[C@H](N)[C@H]3O[C@H]3O[C@H](CN)[C@@H](O)[C@H](O)[C@H]3N)O[C@@H]2CO)[C@H](N)[C@@H](O)[C@@H]1O [FRAMYCETIN]	Not Active	Not Active	Not Active	Not Active	Not Active	Not Active	Not Active	Not Active	Not Active	Not Active	Not Active	–	–
C[C@H]([C@](O)(Cn1cncn1)c1ccc(F)cc1F)S(C)(=O)=O [GENACONAZOLE]	Not Active	Not Active	Not Active	Not Active	Not Active	Not Active	Not Active	Not Active	Not Active	Not Active	Not Active	–	–
Cc1c(F)c(N2CCNC(C)C2)cc2c1c(=O)c(C(=O)O)cn2C1CC1 (stereo not drawn) [GREPAFLOXACIN]	Not Active	Not Active	Not Active	Not Active	Not Active	Not Active	Not Active	Not Active	Not Active	Not Active	Not Active	–	–
N=C(N)N/N=C/c1c(Cl)cccc1Cl [GUANABENZ]	Not Active	Not Active	Not Active	Not Active	Not Active	Not Active	Not Active	Not Active	Not Active	Not Active	Not Active	–	–
C[C@]12CCC(=O)C=C1CC[C@@H]1[C@@H]2[C@@H](O)C[C@@]2(C)[C@H]1CC[C@]2(O)C(=O)CO [HYDROCORTISONE]	Not Active	Not Active	Not Active	Not Active	Not Active	Not Active	Not Active	Not Active	Not Active	Not Active	Not Active	–	–
CC[C@H](C)C(=O)O[C@H]1C[C@@H](C)C=C2C=C[C@H](C)[C@H](CC[C@@H]3C[C@@H](O)CC(=O)O3)[C@H]21 [LOVASTATIN]	–	–	Not Active	Not Active	Not Active	Not Active	Not Active	Not Active	Not Active	Not Active	Not Active	6.32 µM	6.14 µM
CC(C(=O)O)c1ccc(CC2CCCC2=O)cc1 (stereo not drawn) [LOXOPROFEN]	Not Active	Not Active	Not Active	Not Active	Not Active	Not Active	Not Active	Not Active	Not Active	Not Active	Not Active	–	–
Cc1cccc(Nc2ccccc2C(=O)O)c1C [MEFENAMIC ACID]	Not Active	Not Active	Not Active	Not Active	Not Active	Not Active	Not Active	Not Active	Not Active	Not Active	Not Active	–	–
CC(=O)O[C@]1(C(C)=O)CC[C@H]2[C@@H]3C=C(C)C4=CC(=O)CC[C@]4(C)[C@H]3CC[C@@]21C [MEGESTROL ACETATE]	Not Active	Not Active	Not Active	Not Active	Not Active	Not Active	Not Active	Not Active	Not Active	Not Active	Not Active	–	–
COc1ccccc1OCC(O)COC(N)=O (stereo not drawn) [METHOCARBAMOL]	Not Active	Not Active	Not Active	Not Active	Not Active	Not Active	Not Active	Not Active	Not Active	Not Active	Not Active	–	–
CN(Cc1cnc2nc(N)nc(N)c2n1)c1ccc(C(=O)N[C@@H](CCC(=O)O)C(=O)O)cc1 [METHOTREXATE]	Not Active	Not Active	Not Active	Not Active	Not Active	Not Active	Not Active	Not Active	Not Active	Not Active	Not Active	–	–
COC(=O)c1ccccc1O [METHYL SALICYLATE]	Not Active	Not Active	Not Active	Not Active	Not Active	Not Active	Not Active	Not Active	Not Active	Not Active	Not Active	–	–
O=C(O)c1cccnc1 [NIACIN]	Not Active	Not Active	Not Active	Not Active	Not Active	Not Active	Not Active	Not Active	Not Active	Not Active	Not Active	–	–
CNC(=C[N+](=O)[O-])NCCSCc1csc(CN(C)C)n1 [NIZATIDINE]	Not Active	Not Active	Not Active	Not Active	Not Active	Not Active	Not Active	Not Active	Not Active	Not Active	Not Active	–	–
C[C@]12C/C(=C/O)C(=O)C[C@@H]1CC[C@@H]1[C@@H]2CC[C@@]2(C)[C@H]1CC[C@]2(C)O [OXYMETHOLONE]	Not Active	Not Active	Not Active	Not Active	Not Active	Not Active	Not Active	Not Active	Not Active	Not Active	Not Active	–	–
